The text below walks through data of patent US6265433A, “LTA4 hydrolase inhibitors” (G. D. Searle & Company, priority 1999, dated 2001).

Test [1] concerns LTB4 production in calcium ionophore stimulated human blood. In words: Inhibition of calcium ionophore-induced LTB4 production in human blood (human whole blood assay). As to conditions: human blood diluted 1:4; 15 minutes preincubation at 37° C.; calcium ionophore 20 mcg/ml, 10 minutes. The class given is cell-based. The text has this: (§1) One or more of three different assays, (1) an in vitro LTA hydrolase enzyme assay, (2) a human whole blood assay utilizing calcium ionophore stimulation, and (3) a murine ex vivo assay utilizing calcium ionophore stimulation were employed to determine the level of LTA hydrolase inhibitor activity.
LTB4 and Thromboxane Production by Calcium Ionophore Stimulated Human Blood for LTB4 Hydrolase Inhibitor Activity
One or more concentrations of the leukotriene A4 hydrolase inhibitor compounds being tested were prepared (diluted in DMSO) and 2 μl added and gently mixed with the diluted whole blood. After incubating for 15 minutes at 37° C. in a humidified incubator, calcium ionophore […] (Sigma Chemical Co., St. Louis, Mo.) was added to a final concentration of 20 mcg/ml and the incubation continued under the same conditions for an additional 10 minutes to allow LTB4 formation. The reaction was terminated by centrifugation (833 g, 10 minutes at 4° C.) and supernatant were analyzed for LTB4 and thromboxane by commercially available enzyme-linked immunoassays (Caymen Chemical Co., Ann Arbor, Mich.) according to the manufacturer's instructions. The IC50 of each test compound was determined from the amount of inhibition of LTB4 production as compared to an essentially identical assay in which no inhibitor compound was present.

Test [2] has as its system LTB4 production in calcium ionophore stimulated mouse blood. Put plainly: Murine ex vivo LTB4 inhibition, calcium ionophore stimulated mouse blood after oral gavage. The class given is in vivo, mouse (adult male outbred mice). As to conditions: 1 h, blood collected 60 minutes after administration, ionophore A23187 20 mcg/ml, read-out: Murine Ex Vivo LTB4 Inhibition, % I LTB4 at 1 hour after administration of 10 mg/kg.
Excerpt: as §1
Ex Vivo LTB4 and Thromboxane Production by Calcium lonophore Stimulated Mouse Blood for […] Inhibitor Activity
Leukotriene A4 hydrolase inhibitor compounds of the present invention were diluted to a predetermined concentration in phosphate buffered saline containing 2% DMSO and 1% Tween 80. The compounds were administered by oral gavage to adult male outbred mice weighing approximately 20-30 gm at a dose of 10 mg/kg body weight. (Compounds given at a dose of 50 mg/kg body weight are designated in following Table by the symbol, *) Sixty (60) minutes after administration of an LTA4 inhibitor compound of the invention, blood was collected (into heparin-containing tubes) from the retroorbital sinus. […] The mixture was incubated for 10 minutes at 37° C. in a humidified incubator. The reaction was terminated by centrifugation (833 g. 10 minutes at 4° C.). Supernatant were analyzed for LTB4 and thromboxane by commercially available enzyme-linked immunoassays [Caymen Chemical Co., Ann Arbor, Mich.] in accordance with the manufacturer's instructions. The percent inhibition was determined by comparison to animals treated identically except that the solution administered by oral gavage was devoid of inhibitor compound.

Test [3] addresses T1, Recombinant Human LTA4 Hydrolase (Homo sapiens, UniProt P09960).
T1 construct: made in house; host or cells: Spodoptera frugiperda Sf-9 cells (baculovirus)
T1 sequence (P09960 1-611): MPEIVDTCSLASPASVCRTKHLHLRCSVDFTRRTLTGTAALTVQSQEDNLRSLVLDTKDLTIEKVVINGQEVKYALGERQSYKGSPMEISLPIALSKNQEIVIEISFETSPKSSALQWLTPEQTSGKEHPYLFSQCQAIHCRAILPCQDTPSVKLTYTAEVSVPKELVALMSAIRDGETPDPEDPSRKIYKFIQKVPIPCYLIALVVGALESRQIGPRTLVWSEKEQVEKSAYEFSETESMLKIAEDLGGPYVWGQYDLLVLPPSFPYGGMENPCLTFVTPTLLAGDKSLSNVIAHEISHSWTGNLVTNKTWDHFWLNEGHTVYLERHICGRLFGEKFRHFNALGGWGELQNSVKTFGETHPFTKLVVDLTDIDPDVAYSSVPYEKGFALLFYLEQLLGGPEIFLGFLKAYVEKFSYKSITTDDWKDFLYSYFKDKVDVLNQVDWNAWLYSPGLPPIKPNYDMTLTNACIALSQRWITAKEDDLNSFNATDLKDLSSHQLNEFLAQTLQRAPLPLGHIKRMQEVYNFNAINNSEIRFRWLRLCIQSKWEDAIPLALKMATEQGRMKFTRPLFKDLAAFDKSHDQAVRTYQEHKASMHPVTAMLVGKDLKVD
In words: Recombinant Human LTA Hydrolase Assay (in vitro LTA hydrolase enzyme assay). The class given is biochemical. As to conditions: 250 ng rhLTA4 hydrolase; 10 minutes preincubation and 10 minutes reaction at room temperature; pH 7.4. The protocol:
as §1
Recombinant Human LTA Hydrolase Assay for LTA Hydrolase Inhibitor Activity
Compounds of the present invention were tested for LTA hydrolase inhibitor activity against recombinant human LTA hydrolase (rhLTAH). […] Briefly, LTA hydrolase encoding DNA was amplified by polymerase chain reaction using a pair of oligonucleotide primers based on the nucleotide sequence from the 5'-end, and the complement of the 3'-end, of the coding region of the LTA hydrolase gene, the nucleotide sequence of which gene is known. […] A λgt11 human placental cDNA library (Clonetech, Palo Alto, Calif.) provided the nucleic acid template.
One or more predetermined amounts of a compound of the invention were incubated in assay buffer (0.1 M potassium phosphate, 5 mg/ml fatty acid free BSA, 10% DMSO, Ph 7.4) for 10 minutes at room temperature with 250 ng of recombinant hLTA4 H to allow binding, if any, between the enzyme and inhibitor. The stock enzyme solution was 1 mg/m. LTA4 hydrolase, 50 Mm Tris, Ph 8.0, 150 Mm NaCl, 2.5 Mm beta-mercaptoethanol, 50% glycerol. The specific activity of the enzyme was about 650 Nmoles/min/mg. LTA4 (i.e., substrate) was prepared from the methyl ester of LTA4 (Biomol, Inc., Plymouth Meeting, Pa.) by treating the methyl ester with 30 molar equivalents of LiOH at room temperature for 18 hours. The LTA4 substrate in its free acid form was kept frozen at -80° C. until needed. LTA4 (free acid) was thawed and diluted in assay buffer (minus DMSO) to a concentration of 350 ng/ml and 25 μl (8ng) of LTA4 substrate was added to the reaction mixture (total volume of reaction mixture=200 μl at time zero. Each reaction was carried out at room temperature for 10 minutes. The reaction was stopped by diluting 25 μl of the reaction mixture with 500 μl of the assay buffer without DMSO. […] was quantified in the diluted sample by a commercially available enzyme-linked immunoassay [Caymen Chemical Col. Ann Arbor, Mich.] using the method recommended in the manufacturer's instructions and compared to the amount of […] produced in a negative control (i.e., essentially identical conditions except without addition of an inhibitor compound). The IC50 was routinely calculated from the data produced.

A further test concerns LTA4 hydrolase. As to conditions: background statement; cited from earlier work.

pIC50: −log10 of the molar value.

For orientation: pIC50 means the negative decadic logarithm of the IC50, by convention in mol/L. Regarding `CCOC(=O)C1CCN(CCOc2ccc(Oc3ccc(-c4ccccc4)cc3)cc2)CC1` [Example 11], the pIC50 in test [1] is 6.14; in test [3], 6.47. For the same molecule, in test [2], the inhibition at 10 mg/kg stood at 90%.

As for `CN(CCCOc1ccc(Oc2ccc(-c3ccccc3)cc2)cc1)CCC(=O)O` [Example 14], in test [1], the pIC50 is 6.72. The inhibition at 10 mg/kg in test [2] worked out at 78%.

As to `CC(C)C[C@H](NC(=O)[C@@H](O)[C@H](N)Cc1ccccc1)C(=O)O` [bestatin], the “LTA4 hydrolase inhibitory activity” value in the test on LTA4 hydrolase is on record as “exhibit LTA4 hydrolase inhibitory activity”.

For `c1ccc(-c2ccc(Oc3ccc(OCCN4CCCC4)cc3)cc2)cc1` [Example 8], the values for the pIC50 in test [1] and in test [3] were 6.85 and 8.18, respectively. Also, in test [2], the inhibition at 10 mg/kg is 57%.

Turning to `CN(CCCOc1ccc(Oc2ccc(-c3ncco3)cc2)cc1)CCC(=O)O` [Example 18], the pIC50 in test [1] was 6.72; in test [3], 7.57. Besides, the inhibition at 10 mg/kg in test [2] was determined as 94%.

On to `c1cc(Oc2ccc(C3=NCCO3)cc2)ccc1OCCN1CCCC1` [Example 10], for which the pIC50 in test [1] is 6.26; in test [3], 6.23. In test [2], the inhibition at 10 mg/kg stood at 83%.

For `c1coc(-c2ccc(Oc3ccc(OCCN4CCCC4)cc3)cc2)n1` [Example 7], the pIC50 in test [1] is 6.26. Besides, in test [2], the inhibition at 10 mg/kg was 93%.

Regarding `COC(=O)CCN(C)CCCOc1ccc(Oc2ccc(-c3ccccc3)cc2)cc1` [Example 13], the pIC50 in test [1] is 6.10; in test [3], 6.26. For the same molecule, the inhibition at 10 mg/kg in test [2] turned out to be 63%.

Take `CCN(CCCOc1ccc(Oc2ccc(-c3ncco3)cc2)cc1)CCC(=O)O` [Example 19]: the pIC50 in test [1] was 6.62; in test [3] it was 6.47. The inhibition at 10 mg/kg in test [2] was found to be 93%.

With `C[C@H](CS)C(=O)N1CCC[C@H]1C(=O)O` [captopril], the “LTA4 hydrolase inhibitory activity” value in the test with LTA4 hydrolase is reported as “exhibit LTA4 hydrolase inhibitory activity”.

For the molecule `CN(CCCOc1ccc(Oc2ccc(-c3nccs3)cc2)cc1)CCC(=O)O` [Example 17], the pIC50 in test [1] was 7.14; in test [3], 6.02. Further, in test [2], the inhibition at 10 mg/kg is 87%.

For `O=C(O)C1CCN(CCOc2ccc(Oc3ccc(-c4ccccc4)cc3)cc2)CC1` [Example 12], the pIC50 in test [1] is 6.66. In addition, the inhibition at 10 mg/kg in test [2] was 87%.
